Measured values as given in ChEMBL document CHEMBL1156596, “Overcoming undesirable CYP1A2 inhibition of pyridylnaphthalene-type aldosterone synthase inhibitors: influence of heteroaryl derivatization on potency and selectivity” (J Med Chem, 2008).
Blank lines part the entries; values can stand above or below the molecule they belong to.

Experiments:
[1] = Cmax in Wistar rat at 5 mg/kg, po; format: ADME, organism-based; set-up: dose 5 mg/kg, route oral; settings: in vivo
[2] = Plasma concentration in Wistar rat plasma at 5 mg/kg, po after 6 hrs; format: ADME, organism-based; set-up: dose 5 mg/kg, route oral
[3] = Plasma concentration in Wistar rat plasma at 5 mg/kg, po after 4 hrs; format: ADME, organism-based; set-up: dose 5 mg/kg, route oral
[4] = Terminal half life in Wistar rat at 5 mg/kg, po; format: ADME, organism-based; set-up: dose 5 mg/kg, route oral; settings: in vivo
[5] = Plasma concentration in Wistar rat plasma at 5 mg/kg, po after 8 hrs; format: ADME, organism-based; set-up: dose 5 mg/kg, route oral
[6] = Plasma concentration in Wistar rat plasma at 5 mg/kg, po after 1 hr; format: ADME, organism-based; set-up: dose 5 mg/kg, route oral
CYP1A2 = target: T1, CYP1A2 (Homo sapiens, UniProt P05177); assay: Inhibition of human recombinant CYP1A2 expressed in insect microsomes at 2 uM; format: ADME, Microsome
T1 sequence (P05177 whole entry): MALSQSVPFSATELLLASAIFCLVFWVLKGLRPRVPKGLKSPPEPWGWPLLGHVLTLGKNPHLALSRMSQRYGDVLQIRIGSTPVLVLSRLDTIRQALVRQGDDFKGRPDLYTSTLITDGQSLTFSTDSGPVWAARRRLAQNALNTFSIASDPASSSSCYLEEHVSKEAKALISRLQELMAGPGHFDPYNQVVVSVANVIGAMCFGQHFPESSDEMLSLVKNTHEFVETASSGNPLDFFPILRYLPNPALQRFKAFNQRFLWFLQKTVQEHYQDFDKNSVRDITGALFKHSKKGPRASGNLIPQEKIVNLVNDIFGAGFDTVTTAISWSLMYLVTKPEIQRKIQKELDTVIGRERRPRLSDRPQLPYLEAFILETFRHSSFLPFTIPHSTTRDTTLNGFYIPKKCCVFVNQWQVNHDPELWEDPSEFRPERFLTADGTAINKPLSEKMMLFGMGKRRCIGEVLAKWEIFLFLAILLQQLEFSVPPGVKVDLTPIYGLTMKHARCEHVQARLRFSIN

[7] = Plasma concentration in Wistar rat plasma at 5 mg/kg, po after 2 hrs; format: ADME, organism-based; set-up: dose 5 mg/kg, route oral
in vivo = settings: Wistar, rat, po, 5 mg/kg
[8] = Tmax in Wistar rat at 5 mg/kg, po; format: ADME, organism-based; set-up: dose 5 mg/kg, route oral; settings: in vivo
[9] = target: T2, Cytochrome P450 11B2, mitochondrial (Homo sapiens, UniProt P19099); assay: Inhibition of human CYP11B2 expressed in hamster V79 MZh cells at 500 nM; format: cell-based; settings: V79MZh
T2 sequence (P19099 whole entry): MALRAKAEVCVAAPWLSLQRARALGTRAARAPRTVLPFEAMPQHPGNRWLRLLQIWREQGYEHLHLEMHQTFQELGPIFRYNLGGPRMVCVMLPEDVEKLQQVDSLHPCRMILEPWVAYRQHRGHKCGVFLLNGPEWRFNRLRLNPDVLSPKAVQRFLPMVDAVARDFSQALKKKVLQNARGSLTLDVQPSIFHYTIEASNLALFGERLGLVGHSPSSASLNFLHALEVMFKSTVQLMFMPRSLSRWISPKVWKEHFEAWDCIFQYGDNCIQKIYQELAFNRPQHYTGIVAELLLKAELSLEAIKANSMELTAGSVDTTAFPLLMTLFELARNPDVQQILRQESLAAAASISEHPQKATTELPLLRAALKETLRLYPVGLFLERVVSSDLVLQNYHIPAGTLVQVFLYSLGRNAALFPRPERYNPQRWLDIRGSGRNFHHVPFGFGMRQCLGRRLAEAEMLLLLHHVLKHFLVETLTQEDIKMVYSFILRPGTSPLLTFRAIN

CYP11B1 = target: T3, CYP11B1 (Homo sapiens, UniProt P15538); assay: in vitro; settings: hamster V79 MZh cells expressing human CYP11B1
T3 sequence (P15538 whole entry): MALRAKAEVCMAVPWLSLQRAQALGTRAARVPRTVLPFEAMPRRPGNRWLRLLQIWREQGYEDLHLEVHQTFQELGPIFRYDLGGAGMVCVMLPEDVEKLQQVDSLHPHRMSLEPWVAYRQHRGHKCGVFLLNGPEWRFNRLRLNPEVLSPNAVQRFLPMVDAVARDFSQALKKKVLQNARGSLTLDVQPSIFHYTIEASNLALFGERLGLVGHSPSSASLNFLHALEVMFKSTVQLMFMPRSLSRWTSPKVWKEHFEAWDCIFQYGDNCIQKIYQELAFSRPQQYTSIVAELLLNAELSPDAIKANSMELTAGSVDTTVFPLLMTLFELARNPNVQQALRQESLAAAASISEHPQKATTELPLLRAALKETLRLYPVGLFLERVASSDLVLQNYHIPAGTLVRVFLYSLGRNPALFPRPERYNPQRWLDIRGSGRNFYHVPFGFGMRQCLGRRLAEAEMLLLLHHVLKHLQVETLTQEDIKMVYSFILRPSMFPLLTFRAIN

[10] = target: T2, Cytochrome P450 11B2, mitochondrial
Homo sapiens = species on record: Homo sapiens; assay: Selectivity ratio of IC50 for human CYP11B1 to IC50 for human CYP11B2

Cmax [1]: 222 ng/mL | concentration at 6 h [2]: 133 ng/mL | concentration at 4 h [3]: 124 ng/mL | half-life [4]: 324 min | concentration at 8 h [5]: 59.2 ng/mL | concentration at 1 h [6]: 84.5 ng/mL | inhibition at 2 µM (CYP1A2): 98% | concentration at 2 h [7]: 145 ng/mL | AUC(0-inf) (in vivo; plasma): 1540 ng·h/mL | Tmax [8]: 1 h
Compound: COc1ccc2cc(-c3cccnc3)ccc2c1

Cmax [1]: 454 ng/mL | half-life [4]: 132 min | inhibition at 2 µM (CYP1A2): 8% | AUC(0-inf) (in vivo; in vivo): 3580 ng·h/mL | Tmax [8]: 1 h
Compound: N#Cc1ccc(C2CCCc3cncn32)cc1 (stereo not given) [FADROZOLE]

inhibition at 0.5 µM [9]: 7%
Compound: COc1ccc2cc(-c3cncc(C(=O)O)c3)ccc2c1

IC50 (CYP11B1): 691 nM | inhibition at 2 µM (CYP1A2): 97% | IC50 [10]: 2.9 nM | Ratio IC50 (Homo sapiens): 239
Compound: N#Cc1ccc2cc(-c3cccnc3)ccc2c1
